Legend:
Assay type in all cases: cell-based, human
Settings in all cases: for β-Gal: liposome-DNA complex, with serum
[1] = test system: Caco2 cells; assay: pCMV-β-Gal plasmid DNA transfection mediated by ST1223 cationic liposomes, β-galactosidase by ELISA, Caco2 cells
Procedure: (§1) Liposomes were prepared starting with 200 mg of ST1223, synthesised according to the procedure described in EXAMPLE 1 and solubilised in 50 mL of chloroform (solubilisation phase). The solvent was then eliminated under vacuum for one night (t 30-40° C.; 400-700 mm Hg). The sample was hydrated with deionised water to a final concentration of 5 mM (hydration phase). The liposomes were then subjected to sonication for 1 h at 10-second intervals using a sonication bath. The liposomes thus prepared produced unilaminar vesicles.
(§2) The liposome-DNA complex was prepared by mixing the two solutions A and B described here below:
(§3) Solution A: 2.5 μg of plasmid DNA (pCMV/β- Gal, 7200 base pairs, used for the expression of the enzyme β-galactosidase) were diluted sterilely in 50 μl of HBS (HEPES 20 mM; NaCl 150 mM, pH 7.4)
(§4) Solution B: the liposome, prepared according to EXAMPLE 7, was diluted in distilled H2O to a concentration of 1.29 mM and 15 μL of this solution were diluted in 50 µL of distilled H2O).
(§5) The two solutions were mixed by stirring gently and incubated for 10-30 min at room temperature.
(§6) pCMV-β-Gal DNA transfection mediated by cationic liposomes in the various cell lines HeLa, MCF-7, Caco2, and T98-G was performed at different cell densities: 100,000 cells/dish 200.000 cells/dish and 300.000 cells/dish.
(§7) HeLa, MCF-7, Caco2 and T98-G cells were grown for 48 h (37° C., 5% CO2) in the following growth media:
Caco2 cells EMEM (Essential Minimum Eagle Medium, SIGMA catalogue), 15% fetal calf serum, 1% L-glutamine, 1% streptomycin, 1%, penicillin
(§8) Cells were plated at different densities (100.000 cells/dish, 200.000 cells/dish, 300.000 cells/dish) in Petri dishes (Corning or Falcon) measuring approximately 3 cm in diameter and incubated in 2 mL of medium for 18 h before being treated.
(§9) After replacing the medium with 2 mL of fresh medium, […] of the liposome-DNA complex, prepared as described in EXAMPLE 8, were added to each dish; after gentle stirring, the dishes were placed in a thermostat for 5 h (37° C., 5% CO2). Later, the cells were washed three times with 5 mL PBS buffer (Gibco catalogue) per dish and incubated for 16 h (37° C., 5% CO2).
(§10) After washing the cells three times with 5 mL PBS buffer (Gibco catalogue) per dish, total proteins were extracted and 50 μg of these were loaded per well in order to determine β-galactosidase production by immunoassay (β-Gal ELISA Kit, Boehringer).

[2] = test system: T98-G cells; assay: pCMV-β-Gal plasmid DNA transfection mediated by ST1223 cationic liposomes, β-galactosidase by ELISA, T98-G cells
Procedure: as §1, §2, §3, §4, §5, §6, §7
T98-G cells EMEM (Essential Minimum Eagle Medium, SIGMA catalogue), 10% fetal calf serum, 1% L-glutamine, 1% streptomycin, 1% penicillin.
as §8, §9, §10

[3] = test system: MCF-7 cells; assay: pCMV-β-Gal plasmid DNA transfection mediated by ST1223 cationic liposomes, β-galactosidase by ELISA, MCF-7 cells
Procedure: as §1, §2, §3, §4, §5, §6, §7
MCF-7 cells DMEM (Dulbecco Modified Eagle Medium, SIGMA catalogue), 10% fetal calf serum, 1% L-glutamine, 1% streptomycin, 1% penicillin
as §8, §9, §10

[4] = test system: HeLa cells; assay: pCMV-β-Gal plasmid DNA transfection mediated by ST1223 cationic liposomes, β-galactosidase by ELISA, HeLa cells
Procedure: as §1, §2, §3, §4, §5, §6, §7
HeLa cells RPMI-1640 (HyQ catalogue), 10% fetal calf serum, 1% L-glutamine, 1% streptomycin, 1% penicillin
as §8, §9, §10

Compound: CCCCCCCCCCC(=O)O[C@H](CC(=O)OCCC(F)(F)C(F)(F)C(F)(F)C(F)(F)C(F)(F)C(F)(F)C(F)(F)C(F)(F)F)C[N+](C)(C)C.[Cl-] [ST1223, undecanoyl-L-carnitine chloride 1,1H-2,2H-hepatdecafluorodecyl ester]
- cell density of greatest transfection efficiency [1]: 100.000 cells/dish
- β-Gal ([1]; density 100.000 cells/dish): 422 pg/dish
- β-Gal ([1]; density 200.000 cells/dish): 395 pg/dish
- β-Gal ([1]; density 300.000 cells/dish): 385 pg/dish
- cell density of greatest transfection efficiency [2]: 300.000 cells/dish
- β-Gal ([2]; density 100.000 cells/dish): 126 pg/dish
- β-Gal ([2]; density 200.000 cells/dish): 330 pg/dish
- β-Gal ([2]; density 300.000 cells/dish): 491 pg/dish
- cell density of greatest transfection efficiency [3]: 200.000 cells/dish
- β-Gal ([3]; density 100.000 cells/dish): 234 pg/dish
- β-Gal ([3]; density 200.000 cells/dish): 422 pg/dish
- β-Gal ([3]; density 300.000 cells/dish): 409 pg/dish
- cell density of greatest transfection efficiency [4]: 200.000 cells/dish
- β-Gal ([4]; density 100.000 cells/dish): 87 pg/dish
- β-Gal ([4]; density 200.000 cells/dish): 303 pg/dish
- β-Gal ([4]; density 300.000 cells/dish): 83 pg/dish
